Data reported in patent US9878986B2, “Compounds for selective histone deacetylase inhibitors, and pharmaceutical composition comprising the same” (CHONG KUN DANG PHARMACEUTICAL CORP., priority 2013, dated 2018).

Assays:
HDAC 8 = molecular target: T1, HDAC 8 (Homo sapiens, UniProt Q9BY41); test: HDAC panel by Reaction Biology Corp., HDAC 8; type: biochemical; settings: read-out: HDAC inhibitory activities, HDAC 8
T1 construct: Reaction Biology Corp
T1 sequence (Q9BY41 1-377): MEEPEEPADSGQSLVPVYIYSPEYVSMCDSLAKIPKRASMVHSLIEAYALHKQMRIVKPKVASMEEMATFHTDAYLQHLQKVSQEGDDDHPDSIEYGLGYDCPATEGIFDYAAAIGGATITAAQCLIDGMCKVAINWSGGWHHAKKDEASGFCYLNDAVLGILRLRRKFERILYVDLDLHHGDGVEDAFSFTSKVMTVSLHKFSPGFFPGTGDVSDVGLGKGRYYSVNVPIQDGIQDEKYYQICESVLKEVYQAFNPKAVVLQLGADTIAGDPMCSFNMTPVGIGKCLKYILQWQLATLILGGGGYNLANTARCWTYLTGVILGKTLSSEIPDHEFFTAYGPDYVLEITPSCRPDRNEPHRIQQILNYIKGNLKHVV
Description: (§1) The inhibitory activities of Compounds 255 and 374 on all HDACs were confirmed (by Reaction Biology Corp.).

[1] = test system: histone acetylation (HDAC1) in RPMI8226 cells; test: Acetylation of Histone H3 and Histone H4 in cells by Western blot; type: cell-based; settings: 24 hours
Procedure: To determine the selectivity for HDAC6 in cells, the acetylation levels of Tubulin, Histone H3 and Histone H4 depending on the concentration of compounds were measured by Western blot.
RPMI8226 (1.0×10^6 cells/well) cells were seeded on six-well plates and treated with drugs (Compounds 255 and 374) at each concentration. After 24 hours, the proteins were extracted with RIPA buffer and quantified by the Bradford method. 25 μg of protein was lysed in sample buffer, electrophoresed on a 4-12% gradient gel, and then transferred to nitrocellulose membranes for 50 minutes. Then transferred protein was blocked with 5% skim milk for 1 hour. Anti-acetyl H3 (1:2,000), anti-acetyl H4 (1:5,000), anti-acetyl tubulin (1:5,000), and anti-β-actin antibody (1:10,000) were added into 5% skim milk, and the membranes were immersed in the skim milk, reacted at 4° C. for 16 hours, and then washed three times for 10 minutes each with 1×TBS-T. Then, IgG-HRP antibody (1:5,000) was added into 5% skim milk, and then the membranes were immersed in the skim milk, reacted at room temperature for 40 minutes, and then washed three times for […] each with 1×TBS-T. Then, the acetylation levels were determined with a LAS 3000 using ECL solution. […]

[2] = test system: adjuvant-induced arthritis models; test: Adjuvant-induced arthritis models; type: in vivo, Lewis rat; settings: for clinical score: intraperitoneally, score 0 to 16; for arthritis symptoms improved by: 3, 10 and 30 mg/kg twice a day, versus vehicle group; for efficacy compared with the control compound Tofacitinib: clinical score
Procedure: Complete Freund's Adjuvant (Chondrex) containing 10 mg/mL Heat killed mycobacteria toxin was sufficiently mixed, and then 100 μL was taken and intradermally injected into the upper part of the tail of Lewis rat to induce arthritis. After 10 days, the length of the ankle circumference of rats was measured, and then the rats were grouped and used in the experiment. Each compound was intraperitoneally injected twice a day. The clinical score, the length of the ankle circumference, and the weight were measured twice a week after the administration of the compounds. The clinical scores were assigned from 0 to 4 based on the thesis of Woods, etc. (J. Immunology, 1214-1222, 2001), and the total clinical score was determined by evaluating the feet of each rat and summing up the scores (normal: 0, most severe edema: 16). The length of the ankle circumference was calculated based on the formula of 2×3.14(√(a^2+b^2/2)) after measuring top-bottom sides (a) of the foot and lateral sides (b) of the foot. The final value was determined by averaging the calculated values of each foot.

HDAC 6 = molecular target: T2, HDAC 6 (Homo sapiens, UniProt Q9UBN7); test: HDAC panel by Reaction Biology Corp., HDAC 6; type: biochemical; set-up: Reaction Biology Corp; settings: for IC50: Table 15, Reaction Biology Corp., read-out: HDAC6 inhibitory activity; for Selectivity (HDAC6/1): ratio of the HDAC 1 and HDAC 6 values of Table 15; for selectivity for HDAC6 over HDAC1: text on Table 15
T2 sequence (Q9UBN7 1-1215): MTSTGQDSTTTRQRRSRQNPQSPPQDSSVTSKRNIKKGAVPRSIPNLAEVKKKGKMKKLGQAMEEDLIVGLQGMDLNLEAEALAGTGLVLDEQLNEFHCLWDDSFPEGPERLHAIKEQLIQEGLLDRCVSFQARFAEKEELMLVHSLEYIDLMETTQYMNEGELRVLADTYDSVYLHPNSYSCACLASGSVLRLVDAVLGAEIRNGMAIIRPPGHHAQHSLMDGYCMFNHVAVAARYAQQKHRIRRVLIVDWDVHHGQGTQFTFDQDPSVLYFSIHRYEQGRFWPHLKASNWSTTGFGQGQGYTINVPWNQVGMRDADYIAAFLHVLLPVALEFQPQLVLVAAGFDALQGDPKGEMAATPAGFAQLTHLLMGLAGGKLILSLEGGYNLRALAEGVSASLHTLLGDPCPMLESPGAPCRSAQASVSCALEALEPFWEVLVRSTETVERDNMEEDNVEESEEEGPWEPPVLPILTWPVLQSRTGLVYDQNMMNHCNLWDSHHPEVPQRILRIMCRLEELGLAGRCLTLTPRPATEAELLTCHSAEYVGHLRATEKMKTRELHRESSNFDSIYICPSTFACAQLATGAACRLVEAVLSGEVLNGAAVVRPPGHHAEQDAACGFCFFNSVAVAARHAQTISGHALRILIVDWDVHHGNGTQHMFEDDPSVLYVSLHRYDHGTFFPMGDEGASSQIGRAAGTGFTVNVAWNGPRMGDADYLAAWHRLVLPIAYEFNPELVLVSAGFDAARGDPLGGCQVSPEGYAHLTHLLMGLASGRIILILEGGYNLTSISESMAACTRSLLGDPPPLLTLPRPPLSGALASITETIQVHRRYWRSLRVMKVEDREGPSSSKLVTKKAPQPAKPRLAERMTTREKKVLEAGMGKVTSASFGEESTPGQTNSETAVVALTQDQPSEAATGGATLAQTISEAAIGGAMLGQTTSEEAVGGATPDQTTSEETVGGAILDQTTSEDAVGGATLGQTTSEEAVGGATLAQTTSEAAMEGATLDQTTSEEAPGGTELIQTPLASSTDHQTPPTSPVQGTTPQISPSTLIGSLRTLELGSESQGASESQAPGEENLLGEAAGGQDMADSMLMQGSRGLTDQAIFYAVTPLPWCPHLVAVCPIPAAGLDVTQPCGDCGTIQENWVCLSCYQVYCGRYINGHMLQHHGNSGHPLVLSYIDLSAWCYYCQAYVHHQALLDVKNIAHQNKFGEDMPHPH
Description: as §1

| IC50 (HDAC 8) | IC50 (HDAC 6) | Selectivity (HDAC6/1) (HDAC 6) | selectivity for HDAC6 over HDAC1 (HDAC 6) | Compound | concentration at which histone acetylation (HDAC1) was expressed [1] | clinical score ([2]; 3 mg/kg twice a day) | clinical score ([2]; 10 mg/kg twice a day) | clinical score ([2]; 30 mg/kg twice a day) | arthritis symptoms improved by [2] | efficacy compared with the control compound Tofacitinib [2] |
| --- | --- | --- | --- | --- | --- | --- | --- | --- | --- | --- |
| 650 nM | 1 nM | 160 | 160 times | O=C(NO)c1ccc(CN(C(=O)N2CCOCC2)c2cccc(Br)c2)cc1 [Compound 255, N-(3-bromophenyl)-N-(4-(hydroxycarbamoyl)benzyl)morpholine-4-carboxamide] | 1 µM | 3.0 | 2.6 | 0.7 | 40 to 90% | equivalent efficacy |
| 2070 nM | 5 nM | 424 | 424 times | O=C(NO)c1ccc(CN(C(=O)N2CCOCC2)c2cccc(C(F)(F)F)c2)cc1 [Compound 374, N-(4-(hydroxycarbamoyl)benzyl)-N-(3-(trifluoromethyl)phenyl)morpholine-4-carboxamide] | 10 µM | 2.5 | 0.8 | 1.3 | 70 to 90% | equivalent efficacy |
